Assay results as given in ChEMBL document CHEMBL4359915, “Design, synthesis and biological evaluation of novel diazaspiro[4.5]decan-1-one derivatives as potential chitin synthase inhibitors and antifungal agents” (Eur J Med Chem, 2019).
In brackets after ≈: the same amount, converted by molar mass.

Assays:
Candida albicans [1] = experiment: Antifungal activity against Candida albicans ATCC 76615 assessed as growth inhibition measured after 24 hrs by two-fold broth dilution method; assay type: functional; conditions: ATCC 76615, 24 h
Staphylococcus aureus [2] = experiment: Antibacterial activity against methicillin-resistant Staphylococcus aureus N315 assessed as growth inhibition measured after 24 hrs by two-fold broth dilution method; assay type: functional; conditions: N315, 24 h
Candida tropicalis = experiment: Inhibition of Candida tropicalis ATCC 750 chitin synthase at 300 ug/ml using UDP-GlcNAc as substrate relative to control
Candida albicans [3] = experiment: Antifungal activity against Candida albicans ATCC 90023 assessed as growth inhibition measured after 24 hrs by two-fold broth dilution method; assay type: functional; conditions: ATCC 90023, 24 h
Cryptococcus neoformans = experiment: Antifungal activity against Cryptococcus neoformans ATCC 32719 assessed as growth inhibition measured after 24 hrs by two-fold broth dilution method; assay type: functional; conditions: ATCC 32719, 24 h
Bacillus spizizenii = experiment: Antibacterial activity against Bacillus subtilis ATCC 6633 assessed as growth inhibition measured after 24 hrs by two-fold broth dilution method; assay type: functional; conditions: ATCC 6633, 24 h
[4] = Inhibition of Candida tropicalis ATCC 750 chitin synthase using UDP-GlcNAc as substrate
Staphylococcus aureus [5] = experiment: Antibacterial activity against Staphylococcus aureus ATCC 25923 assessed as growth inhibition measured after 24 hrs by two-fold broth dilution method; assay type: functional; conditions: ATCC 25923, 24 h
Aspergillus fumigatus = experiment: Antifungal activity against Aspergillus fumigatus GIMCC 3.19 assessed as growth inhibition measured after 24 hrs by two-fold broth dilution method; assay type: functional; conditions: GIMCC 3.19, 24 h
Aspergillus flavus = experiment: Antifungal activity against Aspergillus flavus ATCC 16870 assessed as growth inhibition measured after 24 hrs by two-fold broth dilution method; assay type: functional; conditions: ATCC 16870, 24 h
Escherichia coli = experiment: Antibacterial activity against Escherichia coli JM 109 assessed as growth inhibition measured after 24 hrs by two-fold broth dilution method; assay type: functional; conditions: JM 109, 24 h
Proteus vulgaris = experiment: Antibacterial activity against Bacillus proteus ATCC 8427 assessed as growth inhibition measured after 24 hrs by two-fold broth dilution method; assay type: functional; conditions: ATCC 8427, 24 h
Pseudomonas aeruginosa = experiment: Antibacterial activity against Pseudomonas aeruginosa ATCC 9027 assessed as growth inhibition measured after 24 hrs by two-fold broth dilution method; assay type: functional; conditions: ATCC 9027, 24 h

SMILES	MIC (Candida albicans [1]) [µM]	MIC (Staphylococcus aureus [2]) [µM]	inhibition (Candida tropicalis) [%]	MIC (Candida albicans [3]) [µM]	MIC (Cryptococcus neoformans) [µM]	MIC (Bacillus spizizenii) [µM]	IC50 [4] [µM]	MIC (Staphylococcus aureus [5]) [µM]	MIC (Aspergillus fumigatus) [µM]	MIC (Aspergillus flavus) [µM]	MIC (Escherichia coli) [µM]	MIC (Proteus vulgaris) [µM]	MIC (Pseudomonas aeruginosa) [µM]
O=C(Nc1cccc(Br)c1)[C@H](O)[C@@H](O)C(=O)N1CCC2(CCNC2=O)CC1	290 (≈ 128 µg/mL)	290 (≈ 128 µg/mL)	79.4	580 (≈ 255 µg/mL)	290 (≈ 128 µg/mL)	1160 (≈ 511 µg/mL)	150	290 (≈ 128 µg/mL)	1160 (≈ 511 µg/mL)	280 (≈ 123 µg/mL)	580 (≈ 255 µg/mL)	290 (≈ 128 µg/mL)	580 (≈ 255 µg/mL)
OC(Cn1cncn1)(Cn1cncn1)c1ccc(F)cc1F [FLUCONAZOLE]	52 (≈ 15.9 µg/mL)			104 (≈ 31.9 µg/mL)	52 (≈ 15.9 µg/mL)				104 (≈ 31.9 µg/mL)	209 (≈ 64 µg/mL)			
O=C(Nc1cccc(C(F)(F)F)c1)[C@H](O)[C@@H](O)C(=O)N1CCC2(CCNC2=O)CC1	300 (≈ 129 µg/mL)	300 (≈ 129 µg/mL)	47.1	300 (≈ 129 µg/mL)	70 (≈ 30.1 µg/mL)	150 (≈ 64.4 µg/mL)		300 (≈ 129 µg/mL)	600 (≈ 258 µg/mL)	60 (≈ 25.8 µg/mL)	150 (≈ 64.4 µg/mL)	150 (≈ 64.4 µg/mL)	300 (≈ 129 µg/mL)
Cc1ccc(NC(=O)[C@H](O)[C@@H](O)C(=O)N2CCC3(CCNC3=O)CC2)cc1	340 (≈ 128 µg/mL)	340 (≈ 128 µg/mL)	48.7	680 (≈ 255 µg/mL)	340 (≈ 128 µg/mL)	680 (≈ 255 µg/mL)		170 (≈ 63.8 µg/mL)	680 (≈ 255 µg/mL)	170 (≈ 63.8 µg/mL)	340 (≈ 128 µg/mL)	680 (≈ 255 µg/mL)	170 (≈ 63.8 µg/mL)
O=C(Nc1ccccc1)[C@H](O)[C@@H](O)C(=O)N1CCC2(CCNC2=O)CC1	710 (≈ 257 µg/mL)	710 (≈ 257 µg/mL)	1.8	710 (≈ 257 µg/mL)	710 (≈ 257 µg/mL)	710 (≈ 257 µg/mL)		1420 (≈ 513 µg/mL)	1420 (≈ 513 µg/mL)	1420 (≈ 513 µg/mL)	710 (≈ 257 µg/mL)	1420 (≈ 513 µg/mL)	710 (≈ 257 µg/mL)
CN[C@@H]1[C@H](O[C@H]2[C@H](O[C@H]3[C@H](O)[C@@H](O)[C@H](N=C(N)N)[C@@H](O)[C@@H]3N=C(N)N)O[C@@H](C)[C@]2(O)C=O)O[C@@H](CO)[C@H](O)[C@H]1O [STREPTOMYCIN]		55 (≈ 32 µg/mL)				28 (≈ 16.3 µg/mL)		28 (≈ 16.3 µg/mL)			14 (≈ 8.14 µg/mL)	14 (≈ 8.14 µg/mL)	7 (≈ 4.07 µg/mL)
O=C(Nc1ccc(Cl)cc1Cl)[C@H](O)[C@@H](O)C(=O)N1CCC2(CCNC2=O)CC1	590 (≈ 254 µg/mL)	150 (≈ 64.5 µg/mL)	82.8	300 (≈ 129 µg/mL)	590 (≈ 254 µg/mL)	300 (≈ 129 µg/mL)	130	590 (≈ 254 µg/mL)	590 (≈ 254 µg/mL)	300 (≈ 129 µg/mL)	150 (≈ 64.5 µg/mL)	150 (≈ 64.5 µg/mL)	300 (≈ 129 µg/mL)
Cc1ccccc1NC(=O)[C@H](O)[C@@H](O)C(=O)N1CCC2(CCNC2=O)CC1	1360 (≈ 511 µg/mL)	680 (≈ 255 µg/mL)	49.8	170 (≈ 63.8 µg/mL)	680 (≈ 255 µg/mL)	340 (≈ 128 µg/mL)		680 (≈ 255 µg/mL)	340 (≈ 128 µg/mL)	1360 (≈ 511 µg/mL)	680 (≈ 255 µg/mL)	680 (≈ 255 µg/mL)	340 (≈ 128 µg/mL)
O=C(Nc1ccccc1Cl)[C@H](O)[C@@H](O)C(=O)N1CCC2(CCNC2=O)CC1	1290 (≈ 511 µg/mL)	320 (≈ 127 µg/mL)	85.5	1290 (≈ 511 µg/mL)	320 (≈ 127 µg/mL)	650 (≈ 257 µg/mL)	140	160 (≈ 63.3 µg/mL)	320 (≈ 127 µg/mL)	1290 (≈ 511 µg/mL)	320 (≈ 127 µg/mL)	160 (≈ 63.3 µg/mL)	320 (≈ 127 µg/mL)
O=C(Nc1ccc([N+](=O)[O-])cc1)[C@H](O)[C@@H](O)C(=O)N1CCC2(CCNC2=O)CC1	1260 (≈ 512 µg/mL)	630 (≈ 256 µg/mL)	58.4	1260 (≈ 512 µg/mL)	1260 (≈ 512 µg/mL)	1260 (≈ 512 µg/mL)	390	160 (≈ 65 µg/mL)	310 (≈ 126 µg/mL)	1260 (≈ 512 µg/mL)	310 (≈ 126 µg/mL)	310 (≈ 126 µg/mL)	630 (≈ 256 µg/mL)
